{
  "source": "patent US20040086896A1",
  "about": "“Polynucleotides and polypeptides associated with the NF-kB pathway” (priority 2001, published 2004)",
  "molecules": {"B1": {"name": "IL-1α: IL-1α (Peprotech) cytokine stimulus (protein, UniProt P01583 113-271, looked up)", "Interleukin-1 alpha": "SAPFSFLSNVKYNFMRIIKYEFILNDALNQSIIRANDQYLTAAALHNLDEAVKFDMGAYKSSKDDAKITVILRISKTQLYVTAQDEDQPVLLKEMPEIPKTITGSETNLLFFWETHGTKNYFTSVAHPNLFIATKQDYWVCLAGGPPSITDFQILENQA"}},
  "key": {"AD037 mRNA [1]": {"test_system": "AD037 mRNA", "assay": "AD037 mRNA by RT-PCR in stimulated THP-1 human monocyte line", "assay_type": "cell-based", "conditions": "THP-1 cells stimulated for 8, 24, or 48 hours; 100 ng/ml LPS, 10 ng/ml TNFα or 100 units/ml IFN-γ; FIG. 18", "procedure": "Nonetheless, the following methods were used to assess the expression profile of the NFkB assocaited polypeptides of the present invention. Briefly, poly (A)^+ mRNA was isolated from THP-1 cells that were either unstimulated, or stimulated with 100 ng/ml LPS for two hours in the presence and absence of BMS-205820 (2 uM) using the Fast Track isolation kit (Invitrogen, Carlsbad, Calif.) according to the manufacturer's instructions. RNA quality and quantity were evaluated using UV spectrometry and capillary electrophoresis with the RNA 6000 Assay (Agilent). […]\nPCR reactions were performed in a total volume of 40 ul containing master mix (SYBR Green I dye, 50 mM Tris-Cl pH 8.3, 75 mM KCl, DMSO, Rox reference dye, 5 mM MgCl2, 2 mM dNTP, I unit Platinum Taq High Fidelity enzyme), 0.5 uM each of forward and reverse gene-specific primers, and cDNA (8 ul of a 1:36 dilution of the first strand reaction mix). […] The data were analyzed using the TaqMan 5700 software with the threshold value set to 0.5. […]\nThe THP-1 human monocyte line was stimulated with 100 ng/ml LPS, 10 ng/ml TNFα (Peprotech, Rocky Hill, N.J.), or 100 units/ml interferon-γ (IFN-γ, Peprotech) for either 8, 24, or 48 hours. […] The levels of each NFkB associated polypeptide mRNA may be measured by RT-PCR analysis using the primers described herein for each gene. […]"}, "AD037 mRNA [2]": {"test_system": "AD037 mRNA", "assay": "AD037 mRNA by RT-PCR in stimulated synovial fibroblasts", "assay_type": "cell-based", "conditions": "synovial fibroblasts, 1, 6, or 24 hours; TNFα, IL-1α, IL-17 10 ng/ml, IL-17B-Ig fusion protein 5 ng/ml; FIG. 20", "procedure": "Nonetheless, the following methods were used to assess the expression profile of the NFkB assocaited polypeptides of the present invention. Briefly, poly (A)^+ mRNA was isolated from THP-1 cells that were either unstimulated, or stimulated with 100 ng/ml LPS for two hours in the presence and absence of BMS-205820 (2 uM) using the Fast Track isolation kit (Invitrogen, Carlsbad, Calif.) according to the manufacturer's instructions. RNA quality and quantity were evaluated using UV spectrometry and capillary electrophoresis with the RNA 6000 Assay (Agilent). Five-hundred nanograms of polyA RNA was used for first-strand cDNA synthesis using the SuperScriptTm First-Strand Synthesis System for RT-PCR (Invitrogen) according to the manufacturer's instructions with 250 ng of random hexamers.\nPCR reactions were performed in a total volume of 40 ul containing master mix (SYBR Green I dye, 50 mM Tris-Cl pH 8.3, 75 mM KCl, DMSO, Rox reference dye, 5 mM MgCl2, 2 mM dNTP, I unit Platinum Taq High Fidelity enzyme), 0.5 uM each of forward and reverse gene-specific primers, and cDNA (8 ul of a 1:36 dilution of the first strand reaction mix). For tissue expression analyses, PCR reactions included 2 ul of cDNA derived from the Human Multiple Tissue cDNA panel I and Human Immune System MTC Panel (Clontech, Palo Alto, Calif.). The amplification program consisted of a 10 minute incubation at 95° C., followed by 40 cycles of incubations at 95° C. for 15 seconds, 60° C. for 1 minute. The amplification was followed by melting curve analysis at 60° C. to determine the specificity of the amplification reaction. A negative control without cDNA template was run to assess the overall specificity. The data were analyzed using the TaqMan 5700 software with the threshold value set to 0.5. The message levels of GAPDH were used to normalize the amounts of cDNA for each reaction.\nSynovial fibroblasts were obtained from Cell Applications, INC. […] The levels of each NFkB associated polypeptide mRNA may be measured by RT-PCR analysis using the primers described herein for each gene. […]"}, "NF-κB pathway": {"test_system": "NF-κB pathway", "assay": "AD037 mRNA by quantitative PCR in THP-1 monocytes, LPS with dexamethasone or IKK-2 inhibitor (FIG. 80)", "assay_type": "cell-based, human", "conditions": "LPS, 2, 4 and 8 hours post stimulation", "procedure": "The figure illustrates the basal AD037 expression in THP-1 monocytes in response to LPS (“LPS”), LPS and the glucocorticoid dexamethasone (“LP/Dex”), or LPS and the IKK-2 inhibitor BMS-345541 (“LPS/345541”), for 2 hours, 4 hours, and 8 afters post stimulation. Unstimulated THP-1 moncytes served as a control. […] Expression data was obtained by measuring the steady state AD037 mRNA levels by quantitative PCR using the PCR primer pair provided as SEQ ID NO:162 and 163 as described herein.\nMoreover, in an effort to further confirm the NF-κB-dependent expression of AD037, two approaches were investigated. In the first approach, additional inhibitors of the NF-κB pathway were used to assess their affect on AD037 expression. Although it has other transcriptional effects, dexamethasone inhibits NF-κB activity via glucocorticoid receptor-mediated transrepression (Reichardt et al. (2001) EMBO J. 20:7168-7173). The compound 4(2′-aminoethyl)amino-1,8-dimethylimidazo(1,2-a) quinoxaline, is a selective IKK-2 inhibitor (International Publication No. WO 02/60386, Published Oct. 10, 2002; Burke et al. (2003) J. Biol. Chem. 278:1450-1456)."}},
  "data": [
    {"molecule": "TNFα", "values": [
      {"measurement": "AD037 mRNA level (RT-PCR, normalized to GAPDH)", "setting": "AD037 mRNA [1]", "value": "upregulated"},
      {"measurement": "AD037 mRNA level (RT-PCR, normalized to GAPDH)", "setting": "AD037 mRNA [2]", "value": "No upregulation"}
    ]},
    {"molecule": "IFN-γ: interferon-γ (Peprotech), fails to activate the NF-KB pathway", "values": [
      {"measurement": "AD037 mRNA level (RT-PCR, normalized to GAPDH)", "setting": "AD037 mRNA [1]", "value": "Little upregulation"}
    ]},
    {"molecule": "IL-17: IL-17 (R&D Systems) cytokine stimulus", "values": [
      {"measurement": "AD037 mRNA level (RT-PCR, normalized to GAPDH)", "setting": "AD037 mRNA [2]", "value": "No upregulation"}
    ]},
    {"molecule": "Cc1ccc2nc(NCCN)c3ncc(C)n3c2c1", "note": "[BMS-345541, 4(2′-aminoethyl)amino-1,8-dimethylimidazo(1,2-a) quinoxaline]", "values": [
      {"measurement": "LPS-induced AD037 expression (mRNA)", "setting": "NF-κB pathway", "value": "reduced to control levels"},
      {"measurement": "LPS-induced AD037 expression (mRNA)", "setting": "NF-κB pathway; listed as 4(2′-aminoethyl)amino-1,8-dimethylimidazo(1,2-a) quinoxaline", "value": "significantly inhibited"}
    ]},
    {"molecule": "B1", "values": [
      {"measurement": "AD037 mRNA level (RT-PCR, normalized to GAPDH)", "setting": "AD037 mRNA [2]", "value": "No upregulation"}
    ]}
  ]
}
